Assay [1] has as its target cyclooxygenase. Briefly: Cyclooxygenase inhibiting effect. In kind it is biochemical. The settings on record: seminal vasicular gland microsomes, 14C-arachidonic acid, prostaglandin E2 formation. The method, then:
(1) Cyclooxygenase inhibiting effect
This assay was carried out by the method described in Russell J. Taylor et al., Biochem. Pharmacol., 25, 2479-2484 (1976).
^14 C-arachidonic acid was reacted with seminal vasicular gland microsomes and the test drugs at various concentrations over a predetermined period of time and the obtained prostaglandin E2 was separated by thin layer chromatography. The radioactivity of prostaglandin E2 was determined by liquid scintillation counter. The IC50 values were calculated by the comparison with the radioactivity of the control.

Assay [2] concerns the target T1, 5-Lipoxygenase (Cavia porcellus, UniProt A0A286X958).
T1 construct: the polymorphonuclear leucocytes were collected and the cytosol fraction was obtained as an enzyme source; endogenous in cells; host or cells: guinea pig peritoneal polymorphonuclear leucocytes, cytosol fraction
T1 sequence (A0A286X958 1-674): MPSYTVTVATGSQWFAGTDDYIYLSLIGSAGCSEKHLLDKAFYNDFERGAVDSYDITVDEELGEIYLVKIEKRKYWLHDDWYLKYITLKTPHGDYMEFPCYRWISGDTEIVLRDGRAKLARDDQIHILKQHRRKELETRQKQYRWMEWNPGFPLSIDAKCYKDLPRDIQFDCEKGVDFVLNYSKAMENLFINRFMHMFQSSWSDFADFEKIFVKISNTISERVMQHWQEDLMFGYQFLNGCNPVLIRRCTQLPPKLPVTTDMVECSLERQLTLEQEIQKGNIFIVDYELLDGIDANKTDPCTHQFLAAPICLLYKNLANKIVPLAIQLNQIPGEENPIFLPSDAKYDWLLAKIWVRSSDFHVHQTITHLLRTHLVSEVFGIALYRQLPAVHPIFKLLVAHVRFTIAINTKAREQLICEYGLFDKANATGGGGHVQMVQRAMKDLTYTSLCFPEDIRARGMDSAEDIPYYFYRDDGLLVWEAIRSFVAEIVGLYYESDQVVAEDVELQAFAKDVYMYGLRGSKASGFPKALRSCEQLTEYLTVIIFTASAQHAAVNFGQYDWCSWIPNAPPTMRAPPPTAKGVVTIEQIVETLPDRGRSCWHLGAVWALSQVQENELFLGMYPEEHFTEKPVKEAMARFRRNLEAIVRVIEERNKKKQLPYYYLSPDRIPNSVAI
Briefly: 5-Lipoxygenase inhibiting activity. It is filed as biochemical. The settings on record: cytosol fraction of guinea pig polymorphonuclear leucocytes, 14C-arachidonic acid, 5-hydroxyeicosatetraenoic acid formation. The method, then: (2) 5-Lipoxygenase inhibiting activity
This assay was carried out by the method described in Kenkichi Ochi et al., J. Biol. Chem., 258, 5754-5758 (1983).
Casein was injected into the abdominal cavity of a guinea pig, and the polymorphonuclear leucocytes were collected and the cytosol fraction was obtained as an enzyme source. ^14 C-arachidonic acid was reacted with the enzyme and the test drug at various concentrations over a predetermined period of time. The obtained 5-hydroxyeicosatetraenoic acid was separated by thin layer chromatography and the radioactivity was determined. The IC^50 values were calculated by the comparison with the radioactivity of the control.

The values that follow come from US5399577A, “Isoxazole derivatives and salts thereof” (Taiho Pharmaceutical Co., Ltd., priority 1991, dated 1995).

As usually defined, the IC50 is the point on the concentration scale where inhibition reaches its midpoint. Read a high IC50 as a need for much substance.

Consider `COc1ccc(-c2noc(CCOC(=O)/C=C/c3ccc(O)c(O)c3)c2-c2ccc(OC)cc2)cc1` [Compound 4], for which the IC50 in assay [1] worked out at 66 nM; in assay [2] it was 62 nM.
Take `COc1ccc(-c2noc(CCNC(=O)/C=C/c3ccc(O)c(O)c3)c2-c2ccc(OC)cc2)cc1` [Compound 5]: the IC50 in assay [1] turned out to be 100 nM; in assay [2], 113 nM.
As to `O=C(/C=C/c1ccc(O)c(O)c1)NCCc1onc(-c2ccccc2)c1-c1ccccc1` [Compound 6], the results for the IC50 in assay [1] and in assay [2] were 2600 nM and 100 nM, respectively.
Regarding `Cc1ccc(-c2noc(CCNC(=O)/C=C/c3ccc(O)c(O)c3)c2-c2ccc(C)cc2)cc1` [Compound 7], the values for the IC50 in assay [1] and in assay [2] were 2600 nM and 110 nM, respectively.
`COc1ccc(-c2c(-c3ccc(Cl)cc3)noc2CCNC(=O)/C=C/c2ccc(O)c(O)c2)cc1` [Compound 8]: the figures for the IC50 in assay [1] and in assay [2] were 1500 nM and 86 nM, respectively.
For `COc1ccc(-c2noc(CCNC(=O)/C=C/c3cc(OC)c(O)c(OC)c3)c2-c2ccc(OC)cc2)cc1` [Compound 10] the same measures were 100 nM and 670 nM.
For `COc1ccc(-c2noc(CCNC(=O)/C=C/C=C/c3ccc(O)c(OC)c3)c2-c2ccc(OC)cc2)cc1` [Compound 12], in that order: 15 nM and 240 nM.
Regarding `COc1ccc(-c2noc(CCNC(=O)/C=C/C=C/c3cc(OC)c(O)c(OC)c3)c2-c2ccc(OC)cc2)cc1` [Compound 13], the half-maximal inhibitory concentration (IC50) was 10 nM in assay [1] and 50 nM in assay [2].
For `COc1ccc(-c2noc(CCNC(=O)/C=C/C=C/c3c(OC)cc(O)cc3OC)c2-c2ccc(OC)cc2)cc1` [Compound 14], in that order: below 10 nM and 130 nM.
As to `COc1ccc(-c2noc(CNC(=O)/C=C/C=C/c3ccc(O)c(OC)c3)c2-c2ccc(OC)cc2)cc1` [Compound 15], the 50% inhibitory concentration (IC50) in assay [1] was 50 nM; in assay [2], 110 nM.
Regarding `COc1ccc(-c2noc(CNC(=O)/C=C/C=C/c3cc(OC)c(O)c(OC)c3)c2-c2ccc(OC)cc2)cc1` [Compound 16], the IC50 worked out at 290 nM in assay [1] and 230 nM in assay [2].
For `COc1ccc(-c2noc(CCCC(=O)/C=C/c3ccc(O)c(O)c3)c2-c2ccc(OC)cc2)cc1` [Compound 38] the same measures were 140 nM and 55 nM.
For `COc1ccc(-c2noc(CCCC(=O)/C=C/c3cc(OC)c(O)c(OC)c3)c2-c2ccc(OC)cc2)cc1` [Compound 39], the concentration for half-maximal inhibition (IC50) worked out at 1310 nM in assay [1] and 180 nM in assay [2].
Regarding `COc1ccc(-c2noc(CCCC(=O)/C=C/c3cc(C)c(O)c(C)c3)c2-c2ccc(OC)cc2)cc1` [Compound 40], the IC50 in assay [1] was 240 nM; in assay [2], 3030 nM.
In the case of `COc1ccc(-c2noc(C(=O)/C=C/C=C/c3ccc(O)c(OC)c3)c2-c2ccc(OC)cc2)cc1` [Compound 46], the half-maximal inhibitory concentration (IC50) in assay [1] came out at 280 nM; in assay [2] it was 390 nM.
For `COc1ccc(-c2noc(CCNC(=S)/C=C/c3ccc(O)c(OC)c3)c2-c2ccc(OC)cc2)cc1` [Compound 48] the same measures were 30 nM and 630 nM.
